Patent US7053228B2, “Sulfur analogues of 21-hydroxy-6,19-oxidoprogesterone (21OH-6OP) for treating excess of glucocorticoids” (Applied Research Systems ARS Holding N.V., priority 2000, dated 2006)

Columns and labels:
[1] = system: rat thymocytes; test: Apoptosis in rat thymocytes (annexin V-FITC/propidium iodide flow cytometry); type: cell-based; conditions: early + late apoptosis
Protocol: On this basis, the antiglucocorticoid properties of the compounds of the present invention may be determined by examining the decrease/increase of apoptosis in rat thymocytes after treatment with a given test compounds. Regulation of apoptosis was analyzed by flow cytometry. The method consists of quantifying fluorometrically the apoptotic cells in the sample. In normal viable cells phosphatidyl serine (PS) is located on the cytoplasmic surface of the cell membrane. Upon induction of apoptosis, rapid alteration in the organization of phospholipids in most cell types occurs leading to exposure of PS on the cell surface. In vitro detection of externalized PS may be achieved through interaction with the anticoagulant annexin V. In the presence of calcium, rapid high affinity binding of annexin V to PS occurs. PS translocation to the cell surface precedes nuclear breakdown, DNA fragmentation and the appearance of most apoptosis-associated molecules making annexin V binding a marker of early-stage apoptosis. In the assay used, a fluorescein isothiocyanate (FITC) conjugate of annexin V is used allowing detection of apoptosis by flow cytometry. Since membrane permeabilization is observed in necrosis, necrotic cells will also bind annexin V-FITC. Propidium iodide is used to distinguish between viable and early apoptotic cells thus the latter will be labeled only with FITC while late apoptotic cells will be labeled with FITC and propidium iodide. An annexin V-FITC apoptosis detection kit from Oncogen Research Products (cat. No. PF032) was used following the RAPID protocol recommended by the manufacturer. Briefly, after incubation with various compounds (see below), cells were centrifuged at 2000 rpm for 5 min, the media removed and cell pellets washed with phosphate buffered saline (PBS): Cells were resuspended in the binding buffer to a density of 1×10^6 cells/ml. Binding reagent (10 μl) and annexin V/FITC (1.25 μl) were added and cells incubated for 15 min at room temperature in the dark. The cells were centrifuged and to the pellet were added binding buffer (0.5 ml) and propidium iodide (10 μl). Samples were analyzed by flow cytometry in a Cytoron Absolute cytometer (Ortho Diagnostic Systems). […] The cytograms obtained are presented in FIGS. 3a-3f, where GR-FL represents fluorescence from FITC and RD-FL represents fluorescence from propidium iodide. […] Early apoptotic cells with exposed PS but intact cell membranes appear in the […] quadrant. Necrotic or late apoptotic cells appear in the upper right quadrant. A small percentage of normal cell death may also occur, none is observed in this case.

[2] = biological target: T1, glucocorticoid receptor (Homo sapiens, UniProt P04150); test: Reporter gene assay pMMTV-Luc expression in Cos-1 line; type: cell-based; conditions: test compound 10^−6 M with dexamethasone; Cos-1 cells transfected with pMMTV-Luc and pRSV-GR
T1 construct: expressed in transfected cells; host or cells: Cos-1
T1 sequence (P04150 1-777): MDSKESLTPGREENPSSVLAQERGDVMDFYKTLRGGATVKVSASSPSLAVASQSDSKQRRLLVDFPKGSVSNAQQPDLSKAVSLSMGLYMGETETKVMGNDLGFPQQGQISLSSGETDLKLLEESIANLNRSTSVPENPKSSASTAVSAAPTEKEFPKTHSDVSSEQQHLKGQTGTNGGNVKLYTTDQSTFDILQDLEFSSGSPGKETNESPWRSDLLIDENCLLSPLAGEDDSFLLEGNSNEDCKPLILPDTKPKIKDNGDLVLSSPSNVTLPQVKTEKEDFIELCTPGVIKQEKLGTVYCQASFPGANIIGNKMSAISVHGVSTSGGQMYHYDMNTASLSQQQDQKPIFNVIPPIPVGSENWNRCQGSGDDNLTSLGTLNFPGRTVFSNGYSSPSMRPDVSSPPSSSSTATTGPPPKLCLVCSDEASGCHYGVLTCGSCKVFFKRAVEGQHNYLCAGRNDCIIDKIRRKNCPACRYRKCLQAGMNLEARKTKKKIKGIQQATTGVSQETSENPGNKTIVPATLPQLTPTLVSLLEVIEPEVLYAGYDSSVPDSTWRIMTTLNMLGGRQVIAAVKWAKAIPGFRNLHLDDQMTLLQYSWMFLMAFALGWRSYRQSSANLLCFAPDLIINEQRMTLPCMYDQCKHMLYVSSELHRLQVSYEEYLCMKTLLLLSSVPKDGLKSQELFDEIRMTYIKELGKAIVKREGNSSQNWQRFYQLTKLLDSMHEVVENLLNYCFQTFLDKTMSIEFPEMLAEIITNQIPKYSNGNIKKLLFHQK
Protocol: vol. 7 No. 10 (1989). The assay may discriminate between gluco/antigluco- and progestin/antiprogestin-effects of the test compounds. Cells were grown on 100 mm plates with 8 ml D-MEM (Dubecco's modified Eagle's medium Gibco BRL), supplemented with 10% bovine fetal serum (Bioser), 3,7 g/l sodium bicarbonate and 100 IU/penicilin G, 100 μg/ml streptomycin, 0,25 μg amphotericin B in an atmosphere in an of 5% CO2 at 37° C. Cells were treated with 0,25% trypsin, 1 mM EDTA and were plated at a density of 5×10^5 cells/plate, in 60 mm plates. Cos-1 cells were transfected with a construct encoding the glucocorticoid receptor, and a construct with the luciferase gene under the MMTV promoter. Cells were transfected by precipitation with calcium phosphate adding 25 μl of a 2M CaCl2 solution to a solution containing 3 pmoles of vectors pMMTV-Luc and pRSV-GR encoding luciferase and the glucocorticoid receptor, respectively. […]
The transfection mixture was added dropwise to an equal volume of transfection buffer 2×BBS, containing phosphate. […] From the supernatant the luciferase activity was determined. […] Luciferase expression was assayed employing a Promega kit in partial obscurity and measured with a Junior luminometer (EG&G Berthold, Germany).
β Galactosidase was determined by hydrolysis of a phenyl galactoside. […]

[3] = biological target: T2, uterus-PR (Homo sapiens, UniProt P06401); conditions: cited from earlier work
T2 construct: host or cells: uterus
T2 sequence (P06401 1-933): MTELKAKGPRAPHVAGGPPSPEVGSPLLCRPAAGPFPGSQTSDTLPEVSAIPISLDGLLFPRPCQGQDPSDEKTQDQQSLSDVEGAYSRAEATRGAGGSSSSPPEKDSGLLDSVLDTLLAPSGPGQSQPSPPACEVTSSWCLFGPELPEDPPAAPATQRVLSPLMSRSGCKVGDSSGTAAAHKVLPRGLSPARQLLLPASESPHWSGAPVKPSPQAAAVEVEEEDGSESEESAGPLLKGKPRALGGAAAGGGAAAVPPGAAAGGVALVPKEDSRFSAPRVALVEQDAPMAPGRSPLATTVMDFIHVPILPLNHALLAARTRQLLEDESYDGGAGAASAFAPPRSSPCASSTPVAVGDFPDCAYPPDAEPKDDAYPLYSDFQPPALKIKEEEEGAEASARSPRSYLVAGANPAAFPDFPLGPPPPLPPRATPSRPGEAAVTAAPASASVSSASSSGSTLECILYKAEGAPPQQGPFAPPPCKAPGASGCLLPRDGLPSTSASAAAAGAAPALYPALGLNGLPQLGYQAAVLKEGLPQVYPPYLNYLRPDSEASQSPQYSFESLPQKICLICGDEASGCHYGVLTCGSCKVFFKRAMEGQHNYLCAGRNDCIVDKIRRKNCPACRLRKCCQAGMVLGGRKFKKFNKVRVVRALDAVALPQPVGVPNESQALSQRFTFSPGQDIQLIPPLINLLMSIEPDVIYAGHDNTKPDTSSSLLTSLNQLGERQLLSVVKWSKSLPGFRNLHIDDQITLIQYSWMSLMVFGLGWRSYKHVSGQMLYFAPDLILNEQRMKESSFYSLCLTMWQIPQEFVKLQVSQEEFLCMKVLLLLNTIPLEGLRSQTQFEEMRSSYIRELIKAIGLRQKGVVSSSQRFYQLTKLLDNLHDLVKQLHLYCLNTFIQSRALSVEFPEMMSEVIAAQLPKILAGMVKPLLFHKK

[4] = biological target: T3, kidney-MR (Homo sapiens, UniProt P08235); conditions: cited from earlier work
T3 construct: host or cells: kidney
T3 sequence (P08235 1-984): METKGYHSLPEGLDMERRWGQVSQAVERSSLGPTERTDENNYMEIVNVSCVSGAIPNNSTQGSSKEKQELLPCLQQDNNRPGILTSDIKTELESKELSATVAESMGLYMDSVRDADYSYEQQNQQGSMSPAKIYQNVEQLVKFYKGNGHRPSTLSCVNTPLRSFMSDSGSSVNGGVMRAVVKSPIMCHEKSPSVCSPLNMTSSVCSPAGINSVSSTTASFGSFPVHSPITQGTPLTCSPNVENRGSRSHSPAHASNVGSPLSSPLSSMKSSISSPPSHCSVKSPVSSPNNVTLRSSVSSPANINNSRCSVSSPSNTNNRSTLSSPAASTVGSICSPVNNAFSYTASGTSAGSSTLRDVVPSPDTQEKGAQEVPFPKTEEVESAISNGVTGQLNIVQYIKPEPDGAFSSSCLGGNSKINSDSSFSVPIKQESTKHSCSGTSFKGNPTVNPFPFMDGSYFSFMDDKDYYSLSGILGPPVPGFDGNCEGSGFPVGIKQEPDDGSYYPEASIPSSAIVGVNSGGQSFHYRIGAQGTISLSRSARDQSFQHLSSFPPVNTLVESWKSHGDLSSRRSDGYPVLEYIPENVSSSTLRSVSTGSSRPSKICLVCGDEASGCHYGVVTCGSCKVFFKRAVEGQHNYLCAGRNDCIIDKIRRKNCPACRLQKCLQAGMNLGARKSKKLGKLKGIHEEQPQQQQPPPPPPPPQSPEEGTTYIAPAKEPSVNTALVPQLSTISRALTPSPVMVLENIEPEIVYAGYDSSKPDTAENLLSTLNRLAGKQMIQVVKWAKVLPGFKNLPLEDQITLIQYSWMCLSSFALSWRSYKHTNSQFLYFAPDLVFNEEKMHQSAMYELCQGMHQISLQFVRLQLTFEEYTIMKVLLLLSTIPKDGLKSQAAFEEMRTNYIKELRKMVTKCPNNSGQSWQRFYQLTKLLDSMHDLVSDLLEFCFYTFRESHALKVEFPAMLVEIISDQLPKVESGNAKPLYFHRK

[5] = Dexamethasone 10^−8 M + test compound 10^−5 M, 4 h at 37° C.

## C[C@]12CCC3C(C[C@H]4SC[C@@]35CCC(=O)C=C45)C1CCC2C(=O)CO (stereo partly drawn) [Compound 3, 21-Hydroxy-6,19-sulfanyl-4-pregnene-3,20-dione]
[1]; [5]
  % total apoptosis: 37.50%

## C[C@]12CCC3C(C[C@@H]4C5=CC(=O)CC[C@@]53C[S+]4[O-])C1CCC2C(=O)CO (stereo partly drawn) [Compound 4, 21-Hydroxy-6,19-sulfoxy-4-pregnene-3,20-dione]
[1]; [5]
  % total apoptosis: 34.60%
[2]
  reduction of the luciferase/β galactosidase ratio: about 65%

## C[C@]12CCC3C(C[C@@H]4C5=CC(=O)CC[C@@]53CS4(=O)=O)C1CCC2C(=O)CO (stereo partly drawn) [Compound 5, 21-Hydroxy-6,19-sulfone-4-pregnene-3,20-dione]
[1]; [5]
  % total apoptosis: 31.40%

## C[C@]12CCC3C(C[C@H]4OC[C@@]35CCC(=O)C=C45)C1CCC2C(=O)CO (stereo partly drawn) [Compound 21OH-6OP, 21-hydroxy-6,19-oxidoprogesterone]
[1]; [5]
  % total apoptosis: 38.10%
[3]
  cross-reaction with uterus-PR: does not substantially cross-react
[4]
  cross-reaction with kidney-MR: does not substantially cross-react

## C[C@@H]1C[C@H]2[C@@H]3CCC4=CC(=O)C=C[C@]4(C)[C@@]3(F)[C@@H](O)C[C@]2(C)[C@@]1(O)C(=O)CO [Dexamethasone]
[1]; Dexamethasone 10^−8 M alone, thymocytes 4 h at 37° C.
  % total apoptosis: 40.40%

## CC#C[C@]1(O)CC[C@H]2[C@@H]3CCC4=CC(=O)CCC4=C3[C@@H](c3ccc(N(C)C)cc3)C[C@@]21C [RU-486, 11-(4-Dimethylamino-phenyl)-17-hydroxy-13-methyl-17-prop-1-ynyl-1,2,6,7,8,11,12,13,14,15,16,17-dodecahydro-cyclopenta[α]phenanthren-3-one]
[1]; Dexamethasone 10^−8 M + reference compound 10^−6 M, 4 h at 37° C.
  % total apoptosis: 35.50%
